From US6635641B2 (Agouron Pharmaceuticals, Inc., priority 2000, dated 2003)
pIC50, pKi: −log10 of the molar value. Counter-ions that a name gives are not always drawn. Like-named read-outs stand apart in the source and are kept apart here. One block for each compound: values may come before it.

Assays:
[1] = target: T1, unphosphorylated VEGF-R2Δ50 (FLVK) (Homo sapiens, UniProt P35968, DEL940-989/E990V); assay: VEGF-R2 coupled spectrophotometric assay, unphosphorylated construct (FLVK); assay type: biochemical; conditions: for FLVK percent inhibition: 0.05 µM; for inhibition at 0.05 µM: @ 50 nM;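 on all read-outs here: Baculovirus-expressed cytosolic kinase domain, ADP formation linked via pyruvate kinase and lactate dehydrogenase to NADH oxidation, read as falling absorbance at 340 nm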
T1 construct: VEGF-R2Δ50 contains residues 806-939 and 990-1171; made in house; host or cells: baculovirus/insect cells

[2] = tested on: human umbilical vein endothelial cells (HUVEC); assay: HUVEC proliferation assay (VEGF-stimulated, MTT); assay type: cell-based; conditions: Homo sapiens
Experimental: This assay determines the ability of a test compound to inhibit the growth factor-stimulated proliferation of human umbilical vein endothelial cells (“HUVEC”). HUVEC cells (passage 3-4, Clonetics, Corp.) were thawed into EGM2 culture medium (Clonetics Corp) in T75 flasks. Fresh EGM2 medium was added to the flasks 24 hours later. Four or five days later, cells were exposed to another culture medium (F12K medium supplemented with 10% fetal bovine serum (FBS), 60 μg/ml endothelial cell growth supplement (ECGS), and 0.1 mg/ml heparin). Exponentially-growing HUVEC cells were used in experiments thereafter. Ten to twelve thousand HUVEC cells were plated in 96-well dishes in 100 μl of rich, culture medium (described above). The cells were allowed to attach for 24 hours in this medium. The medium was then removed by aspiration and 105 μl of starvation media (F12K+1% FBS) was added to each well. After 24 hours, 15 μl of test agent dissolved in 1% DMSO in starvation medium or this vehicle alone was added into each treatment well; the final DMSO concentration was 0.1%. One hour later, 30 μl of VEGF (30 ng/ml) in starvation media was added to all wells except those containing untreated controls; the final VEGF concentration was 6 ng/ml. Cellular proliferation was quantified 72 hours later by MTT dye reduction, at which time cells were exposed for 4 hours MTT (Promega Corp.). Dye reduction was stopped by addition of a stop solution (Promega Corp.) and absorbance at 595 λ was determined on a 96-well spectrophotometer plate reader.

[3] = target: T2, phosphorylated VEGF-R2Δ50 (FLVK-P) (Homo sapiens, UniProt P35968, DEL940-989/E990V); assay: VEGF-R2 coupled spectrophotometric assay, phosphorylated construct (FLVK-P); assay type: biochemical
T2 construct: VEGF-R2Δ50 contains residues 806-939 and 990-1171; made in house; host or cells: baculovirus/insect cells
From the text: A construct (VEGF-R2Δ50) of the cytosolic domain of human vascular endothelial growth factor receptor 2 (VEGF-R2) lacking the 50 central residues of the 68 residues of the kinase insert domain was expressed in a baculovirus/insect cell system. Of the 1356 residues of full-length VEGF-R2, VEGF-R2Δ50 contains residues 806-939 and 990-1171, and also one point mutation (E990V) within the kinase insert domain relative to wild-type VEGF-R2. See commonly assigned, co-pending U.S. patent application Ser. No. 09/390,326, filed Sep. 7, 1999, incorporated by reference herein, for discussion of VEGF constructs and expression systems. Autophosphorylation of the purified construct was performed by incubation of the enzyme at a concentration of 4 μM in the presence of 3 mM ATP and 40 mM MgCl2 in 100 mM Hepes, pH 7.5, containing 5% glycerol and 5 mM DTT, at 4° C. for 2 h. […] See Parast et al., Biochemistry, 37, 16788-16801 (1998).
The production of ADP from ATP that accompanies phosphoryl transfer was coupled to oxidation of NADH using phosphoenolpyruvate (PEP) and a system having pyruvate kinase (PK) and lactic dehydrogenase (LDH). The oxidation of NADH was monitored by following the decrease of absorbance at 340 nm (e340=6.22 cm^−1 mM^−1) using a Beckman DU 650 spectrophotometer. Assay conditions for phosphorylated VEGF-R2Δ50 (indicated as FLVK-P in the tables below) were the following: 1 mM PEP; 250 μM NADH; 50 units of LDH/mL; 20 units of PK/mL; 5 mM DTT; 5.1 mM poly(E4Y1); 1 mM ATP; and 25 mM MgCl2 in 200 mM Hepes, pH 7.5. Assay conditions for unphosphorylated VEGF-R2Δ50 (indicated as FLVK in the tables) were the following: 1 mM PEP; 250 μM NADH; 50 units of LDH/mL; 20 units of PK/mL; 5 mM DTT; 20 mM poly(E4Y1); 3 mM ATP; and 60 mM MgCl2 and 2 mM MnCl2 in 200 mM Hepes, pH 7.5. Assays were initiated with 5 to 40 nM of enzyme. Ki values were determined by measuring enzyme activity in the presence of varying concentrations of test compounds. The data were analyzed using Enzyme Kinetic and Kaleidagraph software.

[4] = unphosphorylated VEGF-R2 construct
[5] = read-out: FLVK percent inhibition

T2 sequence (P35968 with tags, fused parts or gaps DEL940-989/E990V limits assumed): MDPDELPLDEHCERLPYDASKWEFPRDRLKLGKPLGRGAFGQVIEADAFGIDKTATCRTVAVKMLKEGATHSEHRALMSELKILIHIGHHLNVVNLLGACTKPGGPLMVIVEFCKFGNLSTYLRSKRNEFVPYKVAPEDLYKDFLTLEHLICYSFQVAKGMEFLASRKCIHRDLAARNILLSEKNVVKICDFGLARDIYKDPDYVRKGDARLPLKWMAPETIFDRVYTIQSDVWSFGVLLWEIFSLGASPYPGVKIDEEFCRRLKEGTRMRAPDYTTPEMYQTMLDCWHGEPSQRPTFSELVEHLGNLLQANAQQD
T1 sequence (P35968 with tags, fused parts or gaps DEL940-989/E990V limits assumed): as above

Compound: COc1ccc(Nc2cc(CCc3cccc(C(=O)Nc4ccc(N5CCN(C(=O)OC(C)(C)C)CC5)c(C(F)(F)F)c4)c3)[nH]n2)cn1 [Example G-9, 3-{2-[5-(6-Methoxypyridin-3-yl)amino-2H-pyrazol-3-yl]-ethyl}-N-[4-(4-t-butoxycarbonylpiperazin-1-yl)-3-trifluoromethylphenyl]benzamide]
- pKi [1]: 8.60

- pKi [1]: 8.24
Compound: CC1CCc2cc(NC(=O)c3ccc(F)c(OCc4cncc5ccccc45)c3)ccc2N1 (centres unmarked) [Example O-3, 4-Fluoro-N-(2-methyl-1,2,3,4-tetrahydroquinolin-6-yl)-3-(isoquinolin-4-yl-methoxy)-benzamide bistrifluoroacetic acid salt]

Compound: 5-{2-[3-(Piperazin-1-yl-trifluoromethyl-phenylcarbamoyl)-phenyl]-ethyl}nicotinic acid methyl ester dihydrochloride [CC-2]
- FLVK percent inhibition [1]: 30% @

- pKi [1, 4]: 8.85
Compound: CC(C)(C)c1ccc(C(=O)Nc2cccc(CSc3ncnc4[nH]ncc34)c2)cc1 [Example V-5, N-{3-[(1H-pyrazolo[3,4-d]-pyrimidin-4-yl)sulfanylmethyl]phenyl}-4-t-butylbenzamide]

- pKi [1, 4]: 7.97
Compound: O=C(Nc1ccc(N2CCNCC2)c(C(F)(F)F)c1)c1cccc(CCc2cnc3[nH]cnc3c2)c1 [BB-1, 3-[2-(3H-Imidazo[4,5-b]pyridin-6-yl)-ethyl]-N-(4-piperazin-1-yl-3-trifluoromethyl-phenyl)-benzamide dihydrochloride]
- pIC50 ([2]; HUVEC proliferation with albumin, read-out: Huvec + Albumin IC50): 6.03

- inhibition at 0.05 µM [1, 5]: 13%
Compound: O=C(Nc1cccc2c1OC(F)(F)O2)c1cccc(CCc2cncc3ccccc23)c1 [Example O-2, N-(2,2-Difluoro-benzo[1,3]dioxol-4-yl)-3-(2-isoquinolin-4-yl-ethyl)-benzamide trifluoro-acetic acid salt]

- pKi [1]: 8.13
Compound: O=C(Nc1ccc(N2CCNCC2)c(C(F)(F)F)c1)c1ccc(F)c(OCc2cnc3ccccc3c2)c1 [Example R-17, 4-Fluoro-N-(4-piperazin-1-yl-3-trifluoromethyl-phenyl)-3-(quinolin-3-ylmethoxy)-benzamide]
- pIC50 ([2]; HUVEC, read-out: HUVEC IC50): 7.49

- inhibition at 0.05 µM [1, 5]: 19%
Compound: Cc1cc(NC(=O)c2cc(CCc3cncc4ccccc34)c(F)cc2Cl)ccc1C(C)C [Example S-7, 2-Chloro-4-fluoro-N-(4-isopropyl-3-methyl-phenyl)-5-(2-isoquinolin-4-yl-ethyl)-benzamide]
- pIC50 ([2]; HUVEC, read-out: HUVEC IC50): < 6.52

- inhibition at 0.05 µM [1, 5]: 17%
Compound: O=C(Nc1cccc(CSc2ncnc3[nH]ncc23)c1)c1ccc2cc[nH]c2c1 [Example V-13, N-{3-[(1H-pyrazolo[3,4-d]-pyrimidin-4-yl)sulfanylmethyl]phenyl}-indole-6-carboxamide]

- pKi [3]: 7.59
Compound: CC(C)c1cccc(NC(=O)c2cccc(CSc3cnccn3)c2)c1 [Example A-7, N-(3-Isopropylphenyl)-3-[(pyrazin-2-yl)sulfanylmethyl]benzamide]
- pIC50 ([2]; HUVEC, read-out: HUVEC IC50): < 6.15

- inhibition at 0.05 µM [1, 5]: 62%
Compound: O=C(Nc1cc(Cl)c(-n2ccnc2)c(Cl)c1)c1ccc(F)c(OCc2cccnc2)c1 [Example R-24, N-(3,5-Dichloro-4-imidazol-1-yl-phenyl)-4-fluoro-3-(pyridin-3-ylmethoxy)-benzamide]

- inhibition at 0.05 µM [1, 5]: 30%
Compound: CCC(C(=O)Nc1cccc(CSc2ncnc3[nH]ncc23)c1)c1ccccc1C (racemic) [Example V-15]

- inhibition at 0.05 µM [1, 5]: 18%
Compound: O=C(Nc1cccc(CSc2ncnc3[nH]ncc23)c1)c1ccc2ncccc2c1 [Example V-11, N-{3-[(1H-pyrazolo[3,4-d]-pyrimidin-4-yl)sulfanylmethyl]phenyl}-quinoline-6-carboxamide]

- inhibition at 0.05 µM [1, 5]: 42%
Compound: O=C(Nc1ccc(-n2ccnc2)c(C(F)(F)F)c1)c1ccc(F)c(OCc2cccnc2)c1 [Example R-21, 4-Fluoro-N-(4-imidazol-1-yl-3-trifluoromethyl-phenyl)-3-(pyridin-3-ylmethoxy)-benzamide]

- pKi [1, 4]: 8.59
Compound: O=C(Nc1cccc(CSc2ncnc3[nH]ncc23)c1)Nc1cc(C(F)(F)F)cc(C(F)(F)F)c1 [Example V-7, N-{3-[(1H-pyrazolo[3,4-d]pyrimidin-4-ylsulfanyl)methyl]phenyl}-N′-[3,5-bis-(trifluoromethyl)phenyl]urea]

- inhibition at 0.05 µM [1, 5]: 0%
Compound: O=C(Nc1cccnc1)Nc1cccc(CSc2ncnc3[nH]ncc23)c1 [Example V-8, N-{3-[(1H-pyrazolo[3,4-d]pyrimidin-4-ylsulfanyl)methyl]phenyl}-N′-(pyridin-3-yl)urea]

- inhibition at 0.05 µM ([3]; @ 50 nM, read-out: FLVK-P percent inhibition): 20%
Compound: Cc1ccc2cc(NC(=O)c3cccc(CCc4cncc5ccccc45)c3)ccc2n1 [Example S-4, 3-(2-Isoquinolin-4-yl-ethyl)-N-(2-methyl-quinolin-6-yl)-benzamide]
- pIC50 ([2]; HUVEC, read-out: HUVEC IC50): < 6.52

- inhibition at 0.05 µM [1, 5]: 50%
Compound: O=C(Nc1ccc(-n2cncn2)c(C(F)(F)F)c1)c1ccc(F)c(OCc2cccnc2)c1 [Example R-23, 4-Fluoro-3-(pyridin-3-ylmethoxy)-N-(4-[1,2,4]triazol-1-yl-3-trifluoromethyl-phenyl)-benzamide]

- pKi [1]: 8.70
Compound: Cc1ccc(C(=O)Nc2cccc(CSc3ncnc4[nH]ncc34)c2)cc1Br [Example V-1]

- inhibition at 50 µM ([1]; @ 50 μM, read-out: FLVK percent inhibition): 16%
Compound: O=C(Nc1cccc(CSc2ncnc3[nH]ncc23)c1)c1ccc(O)c(Br)c1 [Example V-10, 3-Bromo-4-hydroxy-N-{3-[(1H-pyrazolo[3,4-d]-pyrimidin-4-yl)sulfanylmethyl]phenyl}-benzamide]

Compound: Cl.Cl.NC(=O)c1cncc(CCc2cccc(C(=O)Nc3ccc(N4CCNCC4)c(C(F)(F)F)c3)c2)c1 [CC-1, 5-{2-[3-(Piperazin-1-yl-trifluoromethyl-phenylcarbamoyl)-phenyl]-ethyl}-nicotinamide dihydrochloride]
- FLVK percent inhibition [1]: 20% @

- pKi [1, 4]: 7.66
Compound: CC(C)(C)c1cc(C(=O)Nc2cccc(CSc3ncnc4[nH]ncc34)c2)cc(C(C)(C)C)c1 [Example V-9, N-{3-[(1H-pyrazolo[3,4-d]-pyrimidin-4-yl)sulfanylmethyl]phenyl}-(3,5-di-t-butyl)benzamide]

- pKi [1]: 8.85
Compound: Cc1cc(NC(=O)c2cc(CCc3cncc4ccccc34)c(F)cc2F)ccc1C(C)C [Example S-8, 2,4-Difluoro-N-(4-isopropyl-3-methyl-phenyl)-5-(2-isoquinolin-4-yl-ethyl)-benzamide]

- pKi [3]: 8.38
Compound: Cc1c(Br)cc(NC(=O)c2cccc(CCc3cncc4ccccc34)c2)cc1Br [Example S-5, N-(3,5-Dibromo-4-methyl-phenyl)-3-(2-isoquinolin-4-yl-ethyl)-benzamide]
- pIC50 ([2]; HUVEC, read-out: HUVEC IC50): < 6.52

Compound: O=C(Nc1cccc(CSc2ncnc3[nH]ncc23)c1)c1ccc(Oc2ccccc2)cc1 [Example V-6, N-{3-[(1H-pyrazolo[3,4-d]-pyrimidin-4-yl)sulfanylmethyl]phenyl}-(4-phenoxy)benzamide]
- inhibition at 0.05 µM [1, 5]: 12%

- inhibition at 0.05 µM [1, 5]: 18%
Compound: O=C(Nc1cccc(CSc2ncnc3[nH]ncc23)c1)c1cc2cc(F)ccc2[nH]1 [Example V-12, 5-Fluoro-N-{3-[(1H-pyrazolo[3,4-d]-pyrimidin-4-yl)sulfanylmethyl]-phenyl}-indole-2-carboxamide]
